Reference: BigSolDB 2.1

NS(=O)(=O)Cc1noc2ccccc12
solubility (mole fraction) (in DMF, 278.15 K): 0.0292
solubility (mole fraction) (in DMF, 283.15 K): 0.0356
solubility (mole fraction) (in DMF, 288.15 K): 0.0428
solubility (mole fraction) (in DMF, 293.15 K): 0.0514
solubility (mole fraction) (in DMF, 298.15 K): 0.0612
solubility (mole fraction) (in DMF, 303.15 K): 0.0721
solubility (mole fraction) (in DMF, 308.15 K): 0.0852
solubility (mole fraction) (in DMF, 313.15 K): 0.101
solubility (mole fraction) (in DMF, 318.15 K): 0.118
solubility (mole fraction) (in DMF, 323.15 K): 0.136
solubility (mole fraction) (in acetonitrile, 278.15 K): 0.00682
solubility (mole fraction) (in acetonitrile, 283.15 K): 0.00802
solubility (mole fraction) (in acetonitrile, 288.15 K): 0.00937
solubility (mole fraction) (in acetonitrile, 293.15 K): 0.0108
solubility (mole fraction) (in acetonitrile, 298.15 K): 0.0124
solubility (mole fraction) (in acetonitrile, 303.15 K): 0.0142
solubility (mole fraction) (in acetonitrile, 308.15 K): 0.0162
solubility (mole fraction) (in acetonitrile, 313.15 K): 0.0183
solubility (mole fraction) (in acetonitrile, 318.15 K): 0.0207
solubility (mole fraction) (in acetonitrile, 323.15 K): 0.0233
solubility (mole fraction) (in ethanol, 278.15 K): 0.00139
solubility (mole fraction) (in ethanol, 283.15 K): 0.00162
solubility (mole fraction) (in ethanol, 288.15 K): 0.00185
solubility (mole fraction) (in ethanol, 293.15 K): 0.00215
solubility (mole fraction) (in ethanol, 298.15 K): 0.00245
solubility (mole fraction) (in ethanol, 303.15 K): 0.00279
solubility (mole fraction) (in ethanol, 308.15 K): 0.00316
solubility (mole fraction) (in ethanol, 313.15 K): 0.00356
solubility (mole fraction) (in ethanol, 318.15 K): 0.004
solubility (mole fraction) (in ethanol, 323.15 K): 0.00446
solubility (mole fraction) (in isopropanol, 278.15 K): 0.000797
solubility (mole fraction) (in isopropanol, 283.15 K): 0.000963
solubility (mole fraction) (in isopropanol, 288.15 K): 0.00115
solubility (mole fraction) (in isopropanol, 293.15 K): 0.00137
solubility (mole fraction) (in isopropanol, 298.15 K): 0.00163
solubility (mole fraction) (in isopropanol, 303.15 K): 0.00192
solubility (mole fraction) (in isopropanol, 308.15 K): 0.00226
solubility (mole fraction) (in isopropanol, 313.15 K): 0.00264
solubility (mole fraction) (in isopropanol, 318.15 K): 0.00306
solubility (mole fraction) (in isopropanol, 323.15 K): 0.00352
solubility (mole fraction) (in water, 278.15 K): 1.78e-05
solubility (mole fraction) (in water, 283.15 K): 2.5e-05
solubility (mole fraction) (in water, 288.15 K): 3.43e-05
solubility (mole fraction) (in water, 293.15 K): 4.67e-05
solubility (mole fraction) (in water, 298.15 K): 6.49e-05
solubility (mole fraction) (in water, 303.15 K): 8.56e-05
solubility (mole fraction) (in water, 308.15 K): 0.000112
solubility (mole fraction) (in water, 313.15 K): 0.00015
solubility (mole fraction) (in water, 318.15 K): 0.000196
solubility (mole fraction) (in water, 323.15 K): 0.000256
